In patent US7056890B2, “Combination therapy for effecting weight loss and treating obesity” (VIVUS, Inc., priority 1999, dated 2006):

Experiments:
[1] = Case history of patient(B), topiramate added to phentermine; format: in vivo, human; details: on phentermine after Redux withdrawal
Experimental: They once weighed as much as 395 pounds. When Redux was still on the mark in the United States, they were treated with a combination of diet, exercise, Redux and phentermine. Their lowest weight attained was 285 pounds. When Redux was withdrawn from the market, they remained on phentermine but gained weight back to 295–300 pounds. When topiramate was added to their regimen, they managed to lose 25 pounds and is currently at 271 pounds, their lowest weight since they were […].

[2] = literature studies; cited from earlier work
[3] = Trial of phentermine in combination with topiramate to effect weight loss in patients; format: in vivo, human; details: follow-up 2-9 weeks
Experimental: Patients as part of the following trial were treated according to the following dosage regimen. Patients took phentermine at a dose of 15 mg daily throughout the weight loss program, before breakfast. For the first 6 days, patients took one 25 mg tablet of topiramate before supper. For the next 6 days, patients took two 25 mg tablets of topiramate before supper. For the next 7 days (days 13–19), patients took 100 mg before supper daily using 4–25 mg tablets of topiramate daily. For days 20–26, patients took 150 mg of topiramate daily consisting of one-half of a 200 mg tablet and two 25-mg mg tablets of topiramate. From that point on, unless instructed otherwise by the physician, patients continued to take one 200 mg topiramate tablet daily before supper and continued the 15 mg phentermine daily in the morning. Patients were advised to drink at least eight (8) full glasses of water daily to reduce the risk of kidney stones which may result from taking topiramate.
Patients were advised that while the effect of phentermine is fairly rapid, the effect of topiramate is slower in onset. The weight reduction effect of topiramate will continue for as long as 18 months on the medication. That is, the patient can expect to continue gradual weight loss for up to 18 months on the medication. Of course, weight loss is maximal if the patient follows diet and/or exercise programs. The weight loss should exceed 15% of the patients starting weight. Thus, if the patient weighs about 200 pounds as of the start date, he/she might expect to lose at least 30 pounds in a period of 12–18 months. The following patient data has been collected.
A total of thirteen patients were treated for 1–9 months with phentermine (15 mg daily) in the morning and up to 400 mg of topiramate (median dose 200 mg), in the evening. […] Along with taking medication, patients were instructed to walk at least 30 minutes three times per week and to follow a low fat diet. No patients had taken diet medication for at least 3 months prior to treatment. Average baseline BMI was 32.5 (range 26–48).

Row | SMILES | weight loss, drug compared with placebo [2] | further results
1 | CC(C)(N)Cc1ccccc1 [phentermine] | about 5 % of body weight | weight regained [1]: 295–300 pounds
2 | CCCCCCCCCCC[C@@H](C[C@@H]1OC(=O)[C@H]1CCCCCC)OC(=O)[C@H](CC(C)C)NC=O [orlistat] | about 5 % of body weight | –
3 | CC(C)CC(N(C)C)C1(c2ccc(Cl)cc2)CCC1.Cl (centres unmarked) [Meridia] | – | Follow-Up Weight (lbs) ([3]; individual patients (one per line), phentermine 15 mg daily, topiramate titrated 25 to 200 mg daily): 177 lbs; Follow-Up Blood Pressure ([3]; individual patients): 120/80; % Weight Loss ([3]; individual patients, versus start weight): 2.7%
4 | CC(C)CC(N(C)C)C1(c2ccc(Cl)cc2)CCC1 (centres unmarked) [sibutramine] | about 5 % of body weight | –
5 | CCN[C@@H](C)Cc1cccc(C(F)(F)F)c1 [dexfenfluramine] | about 5 % of body weight | –
